{
  "source": "patent US10287619B2",
  "about": "“Measurement method for dehydrogenase and substrate concentration thereof, electron mediator, and measurement reagent for dehydrogenase including said electron mediator and for substrate thereof” (Dojindo Laboratories, priority 2014, dated 2019)",
  "key": {"[1]": {"tested_on": "Human myeloid leukemia cells (HL60)", "test": "Evaluation of electron transfer with living cells (WST-8 formazan formation)", "format": "cell-based", "conditions": "HL60 25,000 to 0 cells/well; WST-8 500 μM, electron mediator 10 μM; 37° C. for 3 hours; FIG. 3A-3D", "procedure": "Examples of the evaluation of the electron transfer between the electron mediators and the living cells are shown. For comparison, a similar experiment was carried out using 1-Methoxy PMS, a known electron mediator that carries out electron transfer with the living cells. Human myeloid leukemia cells (HL60) were seeded on a 96 well microplate at 25,000 to 0 cells/well, the measurement reagent was added at a final concentration shown below, after reacting at 37° C. for 3 hours and absorbance at 450 nm was measured. Final concentration of the measurement reagent: WST-8 (500 μM), the electron mediator (10 μM)."}, "[2]": {"tested_on": "Chinese Hamster Ovarian (CHO) cells", "test": "Cytotoxicity assay using LDH leaked out of the dead cells as an index", "format": "cell-based", "conditions": "comparison of the IC50 obtained with the electron mediator of the invention (FIG. 5A) and with the commercial LDH-Cytotoxicity Assay Kit (FIG. 5B); MMC 1 mM to 0.0001 mM, 20 hours", "procedure": "The example of the cytotoxicity assay using the LDH leaked out of the dead cell as an index and the solutions of the chromogenic reagent prepared using the electron mediator according to the present invention is shown. As a model of the cytotoxicity assay, cytotoxicity of mitomycin C (MMC) against Chinese Hamster Ovarian (CHO) cells was assayed.\nA suspension of the CHO cells at the concentration of 1.5×10^5 cells/mL was prepared using serum-containing medium and 100 μL of the suspension was seeded to each well of a 96 well microplate. After incubating at 37° C. for 4 hours in a CO2 incubator, 10 μL of MMC was added at final concentration of 1 mM to 0.0001 mM. The microplate was incubated at 37° C. for 20 hours in the CO2 incubator. […] After incubating at 37° C. for 20 minutes in a CO2 incubator, the absorbance at 450 nm was measured using a microplate reader.\nA comparative experiment using a commercially available dead cell assay kit (BioPioneer Inc., LDH-Cytotoxicity Assay Kit) using LDH as an index. […] The measurement method of the absorbance was similar to that as mentioned above except that supernatant of the medium was taken and transferred to another plate so as not to be contaminated with the living cells upon conducting the chromogenic reaction."}},
  "data": [
    {"smiles": "COS(=O)(=O)[O-].COc1cccc2c1nc1ccccc1[n+]2C", "note": "[1-Methoxy PMS, 1-methoxy phenazine methosulfate]", "values": [
      {"measurement": "formation of the formazan attributed to the living cells (absorbance at 450 nm)", "setting": "[1]", "result": "increasing of absorbance"}
    ]},
    {"smiles": "CO[C@@]12[C@H](COC(N)=O)C3=C(C(=O)C(C)=C(N)C3=O)N1C[C@@H]1N[C@@H]12", "note": "[mitomycin C]", "values": [
      {"measurement": "50% Inhibition concentration (IC50) against the CHO cell", "setting": "[2]", "result": "No difference was observed"}
    ]}
  ]
}
